Measured values taken from US20150031572A1, “MEANS AND METHODS FOR ASSESSING NEURONAL TOXICITY” (priority 2012, published 2015).
Marks after values point to notes of the source that are not given here.

Legend:
[1] = Plasma metabolite profiling (GC-MS, LC-MS, SPE-LC-MS) of rats dosed once daily over 28 days; treatment ratios versus untreated control; format: in vivo, rat; settings: for 4-Hydroxyphenylpyruvate, ratio versus control / Glycine, ratio versus control / Phosphatidylcholine (C18:0,C18:2), ratio versus control / Serine, ratio versus control / TAG (C16:0,C18:2), ratio versus control / TAG (C18:1,C18:2), ratio versus control / TAG (C18:2,C18:2), ratio versus control / Threonine, ratio versus control / Tyrosine, ratio versus control / gamma-Linolenic acid (C18:cis[6,9,12]3), ratio versus control / 5-Oxoproline, ratio versus control / Glutamine, ratio versus control / Lysine, ratio versus control / Citrulline, ratio versus control / Phenylalanine, ratio versus control / Creatinine, ratio versus control: plasma; for 5-Oxoproline, plasma metabolite ratio versus control / Alanine, plasma metabolite ratio versus control / Arginine (second line of the table), plasma metabolite ratio versus control / Arginine, plasma metabolite ratio versus control / Citrulline, plasma metabolite ratio versus control / Glutamine, plasma metabolite ratio versus control / Proline, plasma metabolite ratio versus control / Tyrosine, plasma metabolite ratio versus control: high dose; for Creatinine, ratio versus control: Table 12a
Summary of the method: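 Male and female rats (5/sex/group) dosed once daily for 28 days; fasted anaesthetized animals bled retro-orbitally (EDTA plasma) on days 7, 14, 28, stored −80 °C under N2. Polar and lipid fractions profiled by GC-MS (derivatized), LC-MS/MRM; steroids by online SPE-LC-MS. Pool-normalized data; treatment ratios vs sex-matched controls, Welch test p-values.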

[2] = rats exposed to sulcotrione; cited from earlier work
[3] = female rats, day 7, high dose, Table 9a
[4] = female rats, day 7, high dose, Table 9b
[5] = female rats, day 14, high dose, Table 9a
[6] = female rats, day 14, high dose, Table 9b
[7] = female rats, day 28, high dose, Table 9a
[8] = female rats, day 28, high dose, Table 9b
[9] = male rats, day 7, high dose, Table 9c
[10] = male rats, day 7, high dose, Table 9d
[11] = male rats, day 14, high dose, Table 9c
[12] = male rats, day 14, high dose, Table 9d
[13] = male rats, day 28, high dose, Table 9c
[14] = male rats, day 28, high dose, Table 9d

## Cn1ncc(C(=O)c2ccc(S(C)(=O)=O)c(C3=NOCC3)c2Cl)c1O [[3-(4,5-dihydro-isoxazol-3-yl)-4-methylsulfonyl-2-chlorphenyl](5-hydroxy-1-methyl-1H-pyrazol-4-yl)methanone]
[1]; [3]
  4-Hydroxyphenylpyruvate, ratio versus control: 26.68*
  Glycine, ratio versus control: 1.37*
  Phosphatidylcholine (C18:0,C18:2), ratio versus control: 1.12*
  Serine, ratio versus control: 1.16*
  TAG (C16:0,C18:2), ratio versus control: 2.56*
  TAG (C18:1,C18:2), ratio versus control: 2.72*
  TAG (C18:2,C18:2), ratio versus control: 3.93*
  Threonine, ratio versus control: 1.16
  Tyrosine, ratio versus control: 16.36*
  gamma-Linolenic acid (C18:cis[6,9,12]3), ratio versus control: 1.44*
[1]; [4]
  5-Oxoproline, ratio versus control: 0.56*
  Glutamine, ratio versus control: 0.49*
[1]; [5]
  4-Hydroxyphenylpyruvate, ratio versus control: 25.92*
  Glycine, ratio versus control: 1.24*
  Phosphatidylcholine (C18:0,C18:2), ratio versus control: 1.12*
  Serine, ratio versus control: 1.18*
  TAG (C16:0,C18:2), ratio versus control: 2.2*
  TAG (C18:1,C18:2), ratio versus control: 2.89*
  TAG (C18:2,C18:2), ratio versus control: 2.47*
  Threonine, ratio versus control: 1.33*
  Tyrosine, ratio versus control: 16.29*
  gamma-Linolenic acid (C18:cis[6,9,12]3), ratio versus control: 1.55*
[1]; [6]
  5-Oxoproline, ratio versus control: 0.68*
  Glutamine, ratio versus control: 0.53*
[1]; [7]
  4-Hydroxyphenylpyruvate, ratio versus control: 24.95*
  Glycine, ratio versus control: 1.25*
  Phosphatidylcholine (C18:0,C18:2), ratio versus control: 1.11*
  Serine, ratio versus control: 1.14*
  TAG (C16:0,C18:2), ratio versus control: 2.44*
  TAG (C18:1,C18:2), ratio versus control: 3.2*
  TAG (C18:2,C18:2), ratio versus control: 2.77*
  Threonine, ratio versus control: 1.24*
  Tyrosine, ratio versus control: 12.88*
  gamma-Linolenic acid (C18:cis[6,9,12]3), ratio versus control: 1.77*
[1]; [8]
  5-Oxoproline, ratio versus control: 0.58*
  Glutamine, ratio versus control: 0.52*
[1]; [9]
  4-Hydroxyphenylpyruvate, ratio versus control: 31.22*
  Lysine, ratio versus control: 1.23*
  Threonine, ratio versus control: 1.16*
  Tyrosine, ratio versus control: 21.56*
[1]; [10]
  5-Oxoproline, ratio versus control: 0.5*
  Citrulline, ratio versus control: 0.73*
  Glutamine, ratio versus control: 0.41*
  Phenylalanine, ratio versus control: 0.79*
[1]; [11]
  4-Hydroxyphenylpyruvate, ratio versus control: 34.78*
  Lysine, ratio versus control: 1.32*
  Threonine, ratio versus control: 1.2*
  Tyrosine, ratio versus control: 18.22*
[1]; [12]
  5-Oxoproline, ratio versus control: 0.58*
  Citrulline, ratio versus control: 0.72*
  Glutamine, ratio versus control: 0.43*
  Phenylalanine, ratio versus control: 0.9*
[1]; [13]
  4-Hydroxyphenylpyruvate, ratio versus control: 25.05*
  Lysine, ratio versus control: 1.29*
  Threonine, ratio versus control: 1.5*
  Tyrosine, ratio versus control: 14.42*
[1]; [14]
  5-Oxoproline, ratio versus control: 0.54*
  Citrulline, ratio versus control: 0.8*
  Glutamine, ratio versus control: 0.41*
  Phenylalanine, ratio versus control: 0.82

## CS(=O)(=O)c1ccc(C(=O)C2C(=O)CCCC2=O)c(Cl)c1 [sulcotrione]
[2]
  corneal lesions: corneal lesions that varied in severity from partial or hazy opacity to complete opacity

## Lead acetate trihydrate
[1]; male rats, day 7 (m7)
  5-Oxoproline, plasma metabolite ratio versus control: 0.88
  Alanine, plasma metabolite ratio versus control: 0.68
  Arginine (second line of the table), plasma metabolite ratio versus control: 0.91
  Arginine, plasma metabolite ratio versus control: 0.86
  Citrulline, plasma metabolite ratio versus control: 0.94
  Glutamine, plasma metabolite ratio versus control: 0.83
  Proline, plasma metabolite ratio versus control: 0.88
  Tyrosine, plasma metabolite ratio versus control: 0.92
[1]; male rats, day 14 (m14)
  5-Oxoproline, plasma metabolite ratio versus control: 0.92
  Alanine, plasma metabolite ratio versus control: 0.75
  Arginine (second line of the table), plasma metabolite ratio versus control: 0.90
  Arginine, plasma metabolite ratio versus control: 0.87
  Citrulline, plasma metabolite ratio versus control: 0.90
  Glutamine, plasma metabolite ratio versus control: 0.83
  Proline, plasma metabolite ratio versus control: 0.84
  Tyrosine, plasma metabolite ratio versus control: 0.88
[1]; male rats, day 28 (m28)
  5-Oxoproline, plasma metabolite ratio versus control: 0.86
  Alanine, plasma metabolite ratio versus control: 0.75
  Arginine (second line of the table), plasma metabolite ratio versus control: 0.89
  Arginine, plasma metabolite ratio versus control: 0.90
  Citrulline, plasma metabolite ratio versus control: 0.91
  Glutamine, plasma metabolite ratio versus control: 0.87
  Proline, plasma metabolite ratio versus control: 0.88
  Tyrosine, plasma metabolite ratio versus control: 0.90
[1]; male rats, day 7, high dose
  Creatinine, ratio versus control: 1.16
[1]; male rats, day 14, high dose
  Creatinine, ratio versus control: 1.32
[1]; male rats, day 28, high dose
  Creatinine, ratio versus control: 1.66
